Experimental data taken from patent US5925369A, “Bis alkanoyl esters of carnitine having bactericidal, fungicidal and antiprotozoal activity” (priority 1996, dated 1999).
Where two headings read alike, the source gives them in different places.

Legend:
Type in all cases: cell-based
B. pumilus = experiment: MIC on Gram positive bacteria; conditions: Bacillus pumilus; B. pumilus CN 607, lab collection; read-out: Minimal Inhibitory Concentration
Method: (§1) Bacterial suspensions are prepared from an overnight culture in Mueller-Hinton broth and are adjusted, in the same medium, to a final concentration of 5.0×10^4 cells/ml in each well of a 96-well microtiter plate. Substance dilutions (0.3 log) in Mueller-Hinton broth are added to the suspensions in order to have a range of final concentrations from 0.19 to 100 mcg/ml.
(§2) Microtiters are then incubated at 37° C. for 18 hours. (See L. D. THRUPP, Susceptibility testing of antibiotics in liquid media, in: Antibiotics in laboratory medicine. V. LORIAN Ed., II edition, 4, 93-150, Williams & Wilkins, Baltimora, Md. 21202 U.S.A.).

Micrococcus sp. = experiment: MIC on Gram positive bacteria; conditions: Micrococcus sp. IDI 3502, clinical isolate (pustule, scalp); read-out: Minimal Inhibitory Concentration
Method: as §1, §2

[1] = tested on: S. aureus (Staph. aureus); experiment: MIC on Gram positive bacteria; conditions: Staphylococcus aureus, read-out: Minimal Inhibitory Concentration
Method: as §1, §2

[2] = tested on: S. faecalis (Strept. faecalis); experiment: MIC on Gram positive bacteria; conditions: Enterococcus faecalis, read-out: Minimal Inhibitory Concentration
Method: as §1, §2

Staph. capitis = experiment: MIC on Gram positive bacteria; conditions: Staphylococcus capitis; Staph. capitis IDI 3502, clinical isolate (pustule, scalp); read-out: Minimal Inhibitory Concentration
Method: as §1, §2

Staph. epider. = experiment: MIC on Gram positive bacteria; conditions: Staph. epider. IDI 3482, clinical isolate (suppurative wound); read-out: Minimal Inhibitory Concentration
Method: as §1, §2

Staph. sp. = experiment: MIC on Gram positive bacteria; conditions: Staph. sp. SG1 II, clinical isolate; read-out: Minimal Inhibitory Concentration
Method: as §1, §2

Staph. warneri = experiment: MIC on Gram positive bacteria; conditions: Staphylococcus warneri; Staph. warneri IDI 3482, clinical isolate (suppurative wound); read-out: Minimal Inhibitory Concentration
Method: as §1, §2

Strept. sp. = experiment: MIC on Gram positive bacteria; conditions: Strept. sp. SG 7 II, clinical isolate; read-out: Minimal Inhibitory Concentration
Method: as §1, §2

E. aerogenes = experiment: MIC on Gram negative bacteria; conditions: Klebsiella aerogenes; E. aerogenes UM, lab collection; read-out: Minimal Inhibitory Concentration
Method: as §1, §2

[3] = tested on: E. coli (Escherichia coli); experiment: MIC on Gram negative bacteria; conditions: read-out: Minimal Inhibitory Concentration
Method: as §1, §2

Enterobacter cloacae = experiment: MIC on Gram negative bacteria; conditions: Enterobacter cloacae SG 3 II, clinical isolate; read-out: Minimal Inhibitory Concentration
Method: as §1, §2

K. oxytoca = experiment: MIC on Gram negative bacteria; conditions: Klebsiella oxytoca; K. oxytoca 552, lab collection; read-out: Minimal Inhibitory Concentration
Method: as §1, §2

Klebsiella pneumoniae = experiment: MIC on Gram negative bacteria; conditions: Klebsiella pneumoniae SG 5 II, clinical isolate; read-out: Minimal Inhibitory Concentration
Method: as §1, §2

P. vulgaris = experiment: MIC on Gram negative bacteria; conditions: Proteus vulgaris; P. vulgaris UM, lab collection; read-out: Minimal Inhibitory Concentration
Method: as §1, §2

Proteus sp. = experiment: MIC on Gram negative bacteria; conditions: Proteus sp. SG 9 II, clinical isolate; read-out: Minimal Inhibitory Concentration
Method: as §1, §2

Pseudomonas aeruginosa = experiment: MIC on Gram negative bacteria; conditions: Pseudomonas aeruginosa IDI 3530, clinical isolate (ulcer); read-out: Minimal Inhibitory Concentration
Method: as §1, §2

S. typhimurium = experiment: MIC on Gram negative bacteria; conditions: Salmonella enterica; S. typhimurium DS, lab collection; read-out: Minimal Inhibitory Concentration
Method: as §1, §2

Aspergillus fumigatus = experiment: MIC on filamentous fungi; conditions: ATCC28212; Aspergillus fumigatus ATCC 28212, lab collection; read-out: Minimal Inhibitory Concentration
Method: (§3) The conidia are collected from 72-hour cultures in Sabouraud agar by washing them with Sabouraud broth and 0.5% Tween 80. After a coarse filtration and washing, the resulting suspensions are adjusted to a final concentration of approx. 5.0×10^4 CFU/ml in a microtiter plate. The substances (0.3 log dilutions in Y.N.B.s.) are added to the fungal suspensions in order to generate a range of final concentrations from 0.19 to 100 mcg/ml. The microtiter plates are then incubated at 35° C. for 48-72 hours.

Aspergillus niger = experiment: MIC on filamentous fungi; conditions: ATCC16404; Aspergillus niger ATCC 16404, lab collection; read-out: Minimal Inhibitory Concentration
Method: as §3

Fusarium sp. = experiment: MIC on filamentous fungi; conditions: Fusarium sp. F 77, lab collection; read-out: Minimal Inhibitory Concentration
Method: as §3

Mucor mucedo = experiment: MIC on filamentous fungi; conditions: ATCC7941; Mucor mucedo ATCC 7941, lab collection; read-out: Minimal Inhibitory Concentration
Method: as §3

Penicillium sp. = experiment: MIC on filamentous fungi; conditions: Penicillium sp. 1302, lab collection; read-out: Minimal Inhibitory Concentration
Method: as §3

[4] = S. aureus 306 MR, lab collection
[5] = Staph. aureus IDI 3530, clinical isolate (ulcer)
[6] = Staph. aureus IDI 3593, clinical isolate (ulcer)
[7] = Staph. aureus SG II, clinical isolate
[8] = S. faecalis 501, lab collection
[9] = S. faecalis 509, lab collection
[10] = Strept. faecalis IDI 3580, clinical isolate (ulcer)
[11] = Escherichia coli SG 4 II, clinical isolate

SMILES | MIC (B. pumilus) | MIC (Micrococcus sp.) | MIC ([1]; S. aureus 303, lab collection) | MIC [1, 4] | MIC [1, 5] | MIC [1, 6] | MIC [1, 7] | MIC [2, 8] | MIC [2, 9] | MIC [2, 10] | MIC (Staph. capitis) | MIC (Staph. epider.) | MIC (Staph. sp.) | MIC (Staph. warneri) | MIC (Strept. sp.) | MIC (E. aerogenes) | MIC ([3]; E. coli 92 F, lab collection) | MIC [3, 11] | MIC (Enterobacter cloacae) | MIC (K. oxytoca) | other results
CCCCCCCCCCCOC(=O)C[C@H](C[N+](C)(C)C)OC(=O)CC(C)C [ST 1103, isovaleryl L-carnitine undecyl ester methanesulfonate, reference compound] | 3.12 mg/L | 3.12 mg/L | 6.25 mg/L | 6.25 mg/L | 3.12 mg/L | 3.12 mg/L | 3.12 mg/L | 3.12 mg/L | 1.56 mg/L | 6.25 mg/L | 3.12 mg/L | 1.56 mg/L | 6.25 mg/L | 6.25 mg/L | 3.12 mg/L | 25 mg/L | 25 mg/L | 25 mg/L | 25 mg/L | 12.5 mg/L | MIC (Klebsiella pneumoniae): 50 mg/L; MIC (P. vulgaris): 50 mg/L; MIC (Proteus sp.): 50 mg/L; MIC (Pseudomonas aeruginosa): 25 mg/L; MIC (S. typhimurium): 25 mg/L; MIC (Aspergillus fumigatus): 12.5 mg/L; MIC (Aspergillus niger): 12.5 mg/L; MIC (Fusarium sp.): 6.25 mg/L; MIC (Mucor mucedo): 50 mg/L; MIC (Penicillium sp.): 12.5 mg/L
CCCCCCCCCCC(=O)O[C@H](CC(=O)OCc1ccc(COC(=O)C[C@H](C[N+](C)(C)C)OC(=O)CCCCCCCCCC)cc1)C[N+](C)(C)C [ST 1226, bis(undecanoyl L-carnitine chloride)p-xylilene diester] | 1.56 mg/L | 1.56 mg/L | 3.12 mg/L | 3.12 mg/L | 3.12 mg/L | 3.12 mg/L | 3.12 mg/L | 3.12 mg/L | 1.56 mg/L | 6.25 mg/L | 1.56 mg/L | 3.12 mg/L | 3.12 mg/L | 3.12 mg/L | 3.12 mg/L | 6.25 mg/L | 25 mg/L | 12.5 mg/L | 12.5 mg/L | 25 mg/L | MIC (Klebsiella pneumoniae): 50 mg/L; MIC (P. vulgaris): 50 mg/L; MIC (Proteus sp.): 50 mg/L; MIC (Pseudomonas aeruginosa): 50 mg/L; MIC (S. typhimurium): 25 mg/L; MIC (Aspergillus fumigatus): 6.25 mg/L; MIC (Aspergillus niger): 6.25 mg/L; MIC (Fusarium sp.): 3.12 mg/L; MIC (Mucor mucedo): 25 mg/L; MIC (Penicillium sp.): 1.56 mg/L
